Data as given in paper PMC9061999, “Application of the Adverse Outcome Pathway Concept to In Vitro Nephrotoxicity Assessment: Kidney Injury due to Receptor-Mediated Endocytosis and Lysosomal Overload as a Case Study” (Frontiers in Toxicology, 2022).

What was measured:
RPTEC/TERT1 cells = test: Cathepsin D immunofluorescence (KE2, disruption of lysosomes); assay type: cell-based, human
Method: For immunocytochemistry experiments, cells were seeded into 8-well chamber slides (Ibidi) at a density of 140 cells per µL in 300 µL growth medium and were allowed to grow for 48 h (NRK-52E) or 10 d (RPTEC/TERT1) respectively. For treatment, stock solutions (1,000 µM) of compounds dissolved in growth medium were freshly prepared and serial dilutions were made before exposure of cells for 24 h. After treatment, cells were washed twice with 150 µL PBS and fixed with 150 µL 4% paraformaldehyde in 1 x PBS for 10 min at room temperature. […]
After incubation with primary antibody, cells were washed three times for 15 min with 0.2% Tween in 1 x PBS (150 µL) on an orbital shaker. […] To preserve fluorescence 50–100 µL DAPI mounting medium (Vectashield®; Vectorlab, Biozol) was added to the cells and chamber slides were stored at 4°C in the dark until image acquisition.
Images were taken with a TCS SP5 II confocal microscope with an HCX PL APO lambda blue 63.0 × 1.40 OIL UV objective (Leica Microsystems, Wetzlar, GER) (n = 10 cells/treatment group). […] Before quantification, images were blinded and randomized. Quantification of fluorescence intensity was performed using NIH Image® software. […] The mean values of the pixel intensities were automatically calculated by the software and imported in Excel for further processing.

[1] = test system: RPTEC/TERT1 and NRK-52E cells; test: In vitro key event assays (LAMP-1/2, cathepsin D, cell viability) compared across both cell models; assay type: cell-based, human and rat
Method: Cells were plated into 96-well tissue culture plates (10,000 cells per well) and were allowed to grow for 48 h (NRK-52E) respectively 10 d (RPTEC/TERT1) prior to 24 h treatment with model stressors. Stock solution for each compound (2000 µM) was prepared in growth medium and serial dilutions (1:1) were made before each experiment. At the end of the 24 h treatment, cell viability was measured using the CellTiter-Glo® assay (Promega). CellTiter-Glo® reagents and buffer were mixed under light-protected conditions and 100 µL CellTiter-Glo® solution was added directly to each well followed by 2 min incubation on an orbital shaker and 10 min incubation at room temperature in the dark to stabilize the luminescence signal. The suspension was mixed via pipetting and 50 µL were transferred into white 96-well plates (PerkinElmer Inc.). The luminescence signal was measured on a multiplate reader (Mithras LB 940; Berthold). Each assay was performed in three independent experiments carried out in triplicates.
For immunocytochemistry experiments, cells were seeded into 8-well chamber slides (Ibidi) at a density of 140 cells per µL in 300 µL growth medium and were allowed to grow for 48 h (NRK-52E) or 10 d (RPTEC/TERT1) respectively. For treatment, stock solutions (1,000 µM) of compounds dissolved in growth medium were freshly prepared and serial dilutions were made before exposure of cells for 24 h. After treatment, cells were washed twice with 150 µL PBS and fixed with 150 µL 4% paraformaldehyde in 1 x PBS for 10 min at room temperature. After fixation, cells were washed 10 min with 150 µL PBS on an orbital shaker followed by permeabilization with 150 µL 0.2% Triton X-100 in 1 x PBS for 5 min at room temperature on an orbital shaker. The permeabilized cells were washed twice with 1 x PBS (150 µL) for 10 min at room temperature on an orbital shaker and then incubated with 150 µL 5% BSA dissolved in 1 x PBS for 1 h at room temperature to block unspecific binding sites. After blocking, 100 µL primary antibody diluted 1:100 in 1% BSA in 1 x PBS were directly pipetted onto the cells and incubated overnight at 4°C. The following antibodies were employed for NRK-52E cells: Anti-LAMP-1 monoclonal IgG1 kappa mouse antibody (Santa Cruz; sc-20011), anti-Cathepsin D mouse monoclonal IgG2 kappa antibody (Santa Cruz; sc-377124); for RPTEC/TERT1 cells: Anti-LAMP-2 monoclonal mouse antibody (Santa Cruz; sc-18822), anti-Cathepsin D mouse monoclonal IgG2b kappa (Novus Biologicals; NBP1-04278); for both cell lines anti-megalin mouse monoclonal IgG1 antibody (Santa Cruz, sc-515772).
After incubation with primary antibody, cells were washed three times for 15 min with 0.2% Tween in 1 x PBS (150 µL) on an orbital shaker. Cells were incubated for 1 h at room temperature with 100 µL CFL 488-conjugated mouse IgG kappa binding protein (1:50) (m-IgGκ BP-CFL 488; Santa Cruz, sc-516176). After incubation the cells were washed three times for 15 min with 0.2% Tween in 1 x PBS on an orbital shaker and once with 150 µL sterile water. Phalloidin-tetramethylrhodamine B isothiocyanate (TRITC) was used to stain the cytoskeleton and was diluted in 100% methanol to a stock concentration of 0.1 mg/ml and further diluted in 1 x PBS to a working concentration of 0.095 µM. After cells were washed once with 1 x PBS for 10 min at room temperature 150 µL phalloidin-TRITC working solution was added and the cells were incubated on an orbital shaker at room temperature for 60–90 min. After incubation, phalloidin-TRITC solution was aspirated, and the cells were washed once with 1 x PBS. Chamber slides were allowed to dry for 15 min at room temperature. To preserve fluorescence 50–100 µL DAPI mounting medium (Vectashield®; Vectorlab, Biozol) was added to the cells and chamber slides were stored at 4°C in the dark until image acquisition. […]

For Polymyxin B, the “BMC10, KE2” value (RPTEC/TERT1 cells; in vitro POD from KE dose-response, cathepsin D intensity, RPTEC/TERT1, 24 h treatment, n = 3) was 6.8 µM, the “MOE, KE2” value (RPTEC/TERT1 cells; margin of exposure: BMC10 in RPTEC/TERT1 vs human plasma/serum concentration (cmax or css)) was 1.7 - 11.9 and the “Cytotoxicity compared between RPTEC/TERT1 and NRK-52E cells” value ([1]; 24 h treatment, cell viability) was “RPTEC/TERT1 cells were found to be significantly more sensitive”. The “Rank order of effects of the 3 polymyxin derivatives across all KEs” value ([1]; RPTEC/TERT1 and NRK-52E, 24 h) was “most active”, the “Effect on cathepsin D fluorescence intensity (KE2)” value ([1]; RPTEC/TERT1 and NRK-52E, 24 h, immunocytochemistry, quantitative image analysis) was “concentration-dependent decrease in fluorescence intensity” and the “Effect on LAMP-1/2 expression (KE1)” value ([1]; RPTEC/TERT1 and NRK-52E, 24 h, immunofluorescence image analysis) was “significant, concentration-dependent increase in LAMP-1/2 expression”. The “Effect on cell viability / cytotoxicity (KE3)” value ([1]; RPTEC/TERT1 and NRK-52E, 24 h treatment, CellTiter-Glo) was “concentration-dependent decrease in cell viability”.
